# Test results from patent US20260274833A1 (NiKang Therapeutics, Inc., priority 2022, published 2026).
# Biological target: T1, CDK2 (Homo sapiens, UniProt P24941)
# T1 construct: endogenous in cells; host or cells: OVCAR3 cells
# Assay: Phospho-RB measurement in OVCAR3 cells (HTRF phospho-RB cellular kit)
# Assay type: cell-based
# Settings: inhibition of RB phosphorylation at S807/811 (HTRF, TR-FRET ratio 665/620), 24 h compound treatment, 0.3 to 10,000 nM
# How it was run: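 IC50 came from a four-parameter logistic fit of the DMSO-normalized TR-FRET ratio (665/620 nm). That ratio reflects RB phosphorylation at S807/811, read with an HTRF antibody pair 4 h after adding lysate at room temperature.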
compound,measurement,value
"CN1CCN(S(=O)(=O)N2CCC(Nc3nccc(-c4sc(C(C)(C)C)nc4-c4cccc(NS(=O)(=O)N(C)C5CC5)c4F)n3)CC2)CC1 [Example 112, N-(3-(2-(tert-butyl)-5-(2-((1-((4-methylpiperazin-1-yl)sulfonyl)piperidin-4-yl)amino)pyrimidin-4-yl)thiazol-4-yl)-2-fluorophenyl)-(N-methyl-N-cyclopropylamine)-sulfonamide]",IC50,1210 nM
"CC(C)(C)c1nc(-c2cccc(NS(=O)(=O)N3Cc4ccccc4C3)c2F)c(-c2ccnc(NC3CCN(S(=O)(=O)N4CCNCC4)CC3)n2)s1 [Example 113, N-(3-(2-(tert-butyl)-5-(2-((1-(piperazin-1-ylsulfonyl)piperidin-4-yl)amino)-pyrimidin-4-yl)thiazol-4-yl)-2-fluoro-phenyl)isoindoline-2-sulfonamide]",IC50,120 nM
"CC(C)(C)c1nc(-c2cccc(NS(=O)(=O)N3CCc4ccccc4C3)c2F)c(-c2ccnc(NC3CCN(S(=O)(=O)N4CCNCC4)CC3)n2)s1 [Example 114, N-(3-(2-(tert-butyl)-5-(2-((1-(piperazin-1-ylsulfonyl)piperidin-4-yl)amino)-pyrimidin-4-yl)thiazol-4-yl)-2-fluoro-phenyl)-3,4-dihydro-isoquinoline-2(1H)-sulfonamide]",IC50,276 nM
"CC(C)(C)c1nc(-c2cccc(NS(=O)(=O)N3CCOc4ccccc4C3)c2F)c(-c2ccnc(NC3CCN(S(=O)(=O)N4CCNCC4)CC3)n2)s1 [Example 115, N-(3-(2-(tert-butyl)-5-(2-((1-(piperazin-1-ylsulfonyl)piperidin-4-yl)amino)-pyrimidin-4-yl)thiazol-4-yl)-2-fluorophenyl)-2,3-dihydrobenzo [f][1,4]-oxazepine-4(5H)-sulfonamide]",IC50,636 nM
"CC(C)(C)c1nc(-c2cccc(NS(=O)(=O)N3CCNc4ccccc4C3)c2F)c(-c2ccnc(NC3CCN(S(=O)(=O)N4CCNCC4)CC3)n2)s1 [Example 116, N-(3-(2-(tert-butyl)-S-(2-((1-(piperazin-1-ylsulfonyl)piperidin-4-yl)amino)-pyrimidin-4-yl)thiazol-4-yl)-2-fluorophenyl)-1,2,3,5-tetrahydro-4H-benzo[e][1,4] diazepine-4-sulfonamide]",IC50,390 nM
"CC(C)(C)c1nc(-c2cccc(NS(=O)(=O)N3CCc4ccc(C#N)cc43)c2F)c(-c2ccnc(NC3CCN(S(C)(=O)=O)CC3)n2)s1 [Example 118, N-(3-(2-(tert-butyl)-5-(2-((1-(methylsulfonyl)-piperidin-4-yl)amino)-pyrimidin-4-yl)thiazol-4-yl)-2-fluorophenyl)-6-cyanoindoline-1-sulfonamide]",IC50,66.9 nM
"COc1ccc2c(c1)CN(S(=O)(=O)Nc1cccc(-c3nc(C(C)(C)C)sc3-c3ccnc(NC4CCN(S(=O)(=O)N5CCNCC5)CC4)n3)c1F)C2 [Example 119, N-(3-(2-(tert-butyl)-5-(2-((1-(piperazin-1-ylsulfonyl)piperidin-4-yl)amino)-pyrimidin-4-yl)thiazol-4-yl)-2-fluoro-phenyl)-5-methoxy-isoindoline-2-sulfonamide]",IC50,397 nM
"CC(C)(C)c1nc(-c2cccc(NS(=O)(=O)N3CCc4ccc(C#N)cc43)c2F)c(-c2ccnc(NC3CCN(S(=O)(=O)N4CCNCC4)CC3)n2)s1 [Example 120, N-(3-(2-(tert-butyl)-5-(2-((1-(piperazin-1-ylsulfonyl)piperidin-4-yl)amino)-pyrimidin-4-yl)thiazol-4-yl)-2-fluorophenyl)-6-cyanoindoline-1-sulfonamide]",IC50,86.9 nM
"CN(C)CCN(C)S(=O)(=O)N1CCC(Nc2nccc(-c3sc(C(C)(C)C)nc3-c3cccc(NS(=O)(=O)N4Cc5cccnc5C4)c3F)n2)CC1 [Example 121, N-(3-(2-(tert-butyl)-5-(2-((1~(N-(2-(dimethylamino)ethyl)-N-methylsulfamoyl)-piperidin-4-yl)amino)-pyrimidin-4-yl)thiazol-4-yl)-2-fluoro-phenyl)-5,7-dihydro-6H-pyrrolo[3,4-b]-pyridine-6-sulfonamide]",IC50,265 nM
"CN(C)CCN(C)S(=O)(=O)N1CCC(Nc2nccc(-c3sc(C(C)(C)C)nc3-c3cccc(NS(=O)(=O)N4CCc5ccc(C#N)cc54)c3F)n2)CC1 [Example 122, N-(3-(2-(tert-butyl)-5-(2-((1-(N-(2-(dimethylamino)ethyl)-N-methylsulfamoyl)-piperidin-4-yl)amino)-pyrimidin-4-yl)thiazol-4-yl)-2-fluoro-phenyl)-6-cyanoindoline-1-sulfonamide]",IC50,54 nM
"CN(C)CCN(C)S(=O)(=O)N1CCC(Nc2nccc(-c3sc(C(C)(C)C)nc3-c3cccc(NS(=O)(=O)N4CCc5c(C#N)cccc54)c3F)n2)CC1 [Example 123, N-(3-(2-(tert-butyl)-5-(2-((1-(N-(2-(dimethylamino)ethyl)-N-methylsulfamoyl)-piperidin-4-yl)amino)-pyrimidin-4-yl)thiazol-4-yl)-2-fluoro-phenyl)-4-cyanoindoline-1-sulfonamide]",IC50,75.2 nM
"CC(C)(C)c1nc(-c2cccc(NS(=O)(=O)N3CCc4c(C#N)cccc43)c2F)c(-c2ccnc(NC3CCN(S(=O)(=O)N4CCNCC4)CC3)n2)s1 [Example 124, N-(3-(2-(tert-butyl)-5-(2-((1-(piperazin-1-ylsulfonyl)piperidin-4-yl)amino)-pyrimidin-4-yl)thiazol-4-yl)-2-fluoro-phenyl)-4-cyanoindoline-1-sulfonamide]",IC50,151 nM
"CN1CCN(S(=O)(=O)N2CCC(Nc3nccc(-c4sc(C(C)(C)C)nc4-c4cccc(NS(=O)(=O)N5CCc6c(C#N)cccc65)c4F)n3)CC2)CC1 [Example 125, N-(3-(2-(tert-butyl)-5-(2-((1-((4-methyl-piperazin-1-yl)sulfonyl)piperidin-4-yl)amino)-pyrimidin-4-yl)thiazol-4-yl)-2-fluorophenyl)-4-cyanoindoline-1-sulfonamide]",IC50,204 nM
"CC(C)(C)c1nc(-c2cccc(NS(=O)(=O)N3Cc4ccncc4C3)c2F)c(-c2ccnc(NC3CCN(S(=O)(=O)N4CCNCC4)CC3)n2)s1 [Example 126, N-(3-(2-(tert-butyl)-5-(2-((1-(piperazin-1-ylsulfonyl)piperidin-4-yl)amino)-pyrimidin-4-yl)thiazol-4-yl)-2-fluorophenyl)-1,3-dihydro-2H-pyrrolo[3,4-c] pyridine-2-sulfonamide]",IC50,366 nM
"CN1CCN(S(=O)(=O)N2CCC(Nc3nccc(-c4sc(C(C)(C)C)nc4-c4cccc(NS(=O)(=O)N5Cc6cccnc6C5)c4F)n3)CC2)CC1 [Example 127, N-(3-(2-(tert-butyl)-5-(2-((1-((4-methyl-piperazin-1-yl)sulfonyl)piperidin-4-yl)amino)-pyrimidin-4-yl)thiazol-4-yl)-2-fluorophenyl)-5,7-dihydro-6H-pyrrolo[3,4-b] pyridine-6-sulfonamide]",IC50,208 nM
"CN1CCN(S(=O)(=O)N2CCC(Nc3nccc(-c4sc(C(C)(C)C)nc4-c4cccc(NS(=O)(=O)N5Cc6ccncc6C5)c4F)n3)CC2)CC1 [Example 128, N-(3-(2-(tert-butyl)-5-(2-((1-((4-methylpiperazin-1-yl)sulfonyl)piperidin-4.yl)-amino)pyrimidin~4-yl)thiazol-4-yl)-2-fluorophenyl)-1,3-dihydro-2H-pyrrolo[3,4-c]-pyridine-2-sulfonamide]",IC50,162 nM
"CC(C)(C)c1nc(-c2cccc(NS(=O)(=O)N3CCNc4ccccc43)c2F)c(-c2ccnc(NC3CCN(S(=O)(=O)N4CCNCC4)CC3)n2)s1 [Example 129, N-(3-(2-(tert-butyl)-5-(2-((1-(piperazin-1-ylsulfonyl)piperidin-4-yl)amino)-pyrimidin-4-yl)thiazol-4-yl)-2-fluoro-phenyl)-3,4-dihydroquinoxaline-1(2H)-sulfonamide]",IC50,328 nM
"C[C@@H]1c2ccccc2CN1S(=O)(=O)Nc1cccc(-c2nc(C(C)(C)C)sc2-c2ccnc(NC3CCN(S(C)(=O)=O)CC3)n2)c1F [Example 130, (R)-N-(3-(2-(tert-butyl)-5-(2-((1-(methyl-sulfonyl)piperidin-4-yl)amino)-pyrimidin-4-yl)thiazol-4-yl)-2-fluoro-phenyl)-1-methyliso-indoline-2-sulfonamide]",IC50,268 nM
"C[C@H]1c2ccccc2CN1S(=O)(=O)Nc1cccc(-c2nc(C(C)(C)C)sc2-c2ccnc(NC3CCN(S(C)(=O)=O)CC3)n2)c1F [Example 131, (S)-N-(3-(2-(tert-butyl)-5-(2-((1-(methyl-sulfonyl)piperidin-4-yl)amino)pyrimidin-4-yl)thiazol-4-yl)-2-fluoro-phenyl)-1-methyliso-indoline-2-sulfonamide]",IC50,160 nM
"CC(C)(C)c1nc(-c2cccc(NS(=O)(=O)N3Cc4cccnc4C3)c2F)c(-c2ccnc(NC3CCN(S(=O)(=O)N4CCNCC4)CC3)n2)s1 [Example 132, N-(3-(2-(tert-butyl)-5-(2-((1-(piperazin-1-ylsulfonyl)piperidin-4-yl)amino)-pyrimidin-4-yl)thiazol-4-yl)-2-fluoro-phenyl)-5,7-dihydro-6H-pyrrolo[3,4-b]-pyridine-6-sulfonamide]",IC50,310 nM
"CN(C)Cc1cccc2c1CCN2S(=O)(=O)Nc1cccc(-c2nc(C(C)(C)C)sc2-c2ccnc(NC3CCN(S(C)(=O)=O)CC3)n2)c1F [Example 133, N-(3-(2-(tert-butyl)-5-(2-((1-(methylsulfonyl)-piperidin-4-yl)amino)-pyrimidin-4-yl)thiazol-4-yl)-2-fluoro-phenyl)-4-((dimethylamino)methyl)-indoline-1-sulfonamide]",IC50,331 nM
"CNCc1cccc2c1CCN2S(=O)(=O)Nc1cccc(-c2nc(C(C)(C)C)sc2-c2ccnc(NC3CCN(S(C)(=O)=O)CC3)n2)c1F [Example 134, N-(3-(2-(tert-butyl)-5-(2-((1-(methylsulfonyl)-piperidin-4-yl)amino)-pyriidin-4-yl)thiazol-4-yl)-2-fluoro-phenyl)-4-((methylamino)methyl)-indoline-1-sulfonamide]",IC50,589 nM
